Here are results for four compounds from patent US20080234230A1, “Pharmaceutical Composition for Regulation of Pancreatic Juice Secretion Comprising a LPA Receptor Modulator” (ONO PHARMACEUTICAL CO., LTD., priority 2001, published 2008).

Where no end group is shown, it is not given here. The star is where a group is joined. SO3H = O=S(=O)(O)*

In experiment [1] the test system is pancreatic juice secretion. Nature of the experiment: Determination of the amount of pancreatic juice secreted in rats (Example 1). The format is in vivo, rat. As to the method:
Male rats (8 to 9 week-old) fasting from the morning of the previous day were anesthetized by subcutaneous application of urethane (1.2 g/5 ml/kg) and polyethylene tubes were inserted into the arteria carotis communis and the femoral vein. The abdomen was cut open along the median line and the gastric pylorus was ligated. Then, a polyethylene tube was inserted into the bile duct at the hepatic portal portion, through which the tip of the tube was inserted into the pore opened in the duodenum intestine in order to return bile to the duodenum intestine. The origin of the hepatoapancreatic tube from the duodenum intestine was cut open, into which a tube was inserted in the same way as in the bile duct and led outside the body. Pure pancreatic juice was collected from the tube.
The drug was continuously administered through the femoral vein with saline. On the other hand, a saline containing 18:3-LPA, 18:3-LPC or 0.5% bovine serum albumin (Sigma, A-0281) as control (vehicle) was infused (1 ml/h) through the cervical vein, and pancreatic juice was collected for 1 hour.
The volume of the collected pancreatic juice was measured. In this connection, saline was infused through the cervical vein and the femoral vein 1 hour before administration of the drug, during which time the amount of pancreatic juice secreted was measured in order to ascertain that there was no considerable difference between individual animals in the pre-value to the pancreatic juice secretion in the individual animals.

The next experiment relates to amylase secretion. The experiment is described as follows: Determination of the amount of amylase secreted (Example 2). It counts as in vivo, rat. As to the method:
The pancreatic juice collected in Example 1 was diluted with Dulbecco's phosphate-buffered saline(−) (PBS(−)) at an appropriate dilution rate, of which the amylase activity was determined with a reagent of a Diacolor AMY Neorate (Ono Pharmaceutical) kit. To 10 μl of an amylase standard solution (Worthington Biochemical, diluted to 100 U/L to 6,400 U/L with PBS(−)) or the collected diluted pancreatic juice was added 50 μl of an enzyme reagent of the kit, and the mixture was incubated at 37° C. for 3 minutes. Then, after addition of 50 μl of a substrate reagent of the kit, the variation (Vmax) of optical density (OD) at 400 nm was monitored at 37° C. for 3 minutes (SPECTRAMAX 250). The amylase activity was calculated from an amylase standard curve to evaluate the effect of the subject substance by means of the secreted amount of the enzyme (U/h) obtained by the enzyme activity (concentration) (U/L) multiplied by the amount of pancreatic juice collected (L/h).

A further experiment has as its system lipase secretion. Nature of the experiment: Determination of the amount of lipase secreted (Example 3). The conditions noted are these: rats. The format is in vivo, rat. The procedure:
The pancreatic juice collected in Example 1 was diluted with saline at an appropriate dilution rate and the lipase activity was measured with a reagent contained in Liquitech Lipase Color kit (Roche Diagnostics). Then, 100 μl of a kit R-1 solution was added to 10 μl of a lipase standard solution (Worthington Biochemical; prepared to 1 U/L to 1,000 U/L with saline) or the collected diluted pancreatic juice, and the mixture was incubated at 37° C. for 5 minutes. Then, 60 μl of a kit R-2 solution was added and the variation (Vmax) of optical density (OD) at 570-700 nm was monitored at 37° C. for 3 minutes (SPECTRAMAX 250). The lipase activity of the pancreatic juice was calculated from a lipase standard curve to evaluate the effect of the subject substance by means of the secreted amount of the enzyme (U/h) obtained by the enzyme activity (concentration)(U/L) multiplied by the amount of pancreatic juice collected (L/h).

Experiment [2] concerns cholecystokinin-induced pancreatic juice secretion. Nature of the experiment: Pancreatic juice secreted in rats by stimulation with cholecystokinin (CCK-8) (Example 4). The format is in vivo, rat. The conditions noted are these: CCK-8 0.12 μg/kg/h. The procedure:
The pancreatic juice secreted in rats was collected in the same manner as described in Example 1. In order to ascertain the effect of LPA on excessive pancreatic juice secretion by CCK, an experiment was conducted according to a protocol as shown in Table 2. As CCK, CCK-8 (Sigma No. C-2175) was used.
Saline was infused through the cervical vein and the femoral vein 1 hour before administration of the drug, during which time the amount of pancreatic juice secreted was measured in order to ascertain that there was no considerable difference between individual animals in the pre-value to the pancreatic juice secretion in the individual animals. After 1 hour infusion of saline, to the 18:3-LPA group and the 18:3-LPC group, were infused 3 mg/kg/h of 18:3-LPA and 10 mg/kg/h of 18:3-LPC, respectively, through the femoral vein. After lapse of 1 hour, CCK-8 was intravenously infused for stimulation through the cervical vein in order to examine the effect of LPA on the excessive pancreatic juice secretion. To the control group (vehicle) with no stimuli by CCK-8, 0.5% BSA in saline was administered through the cervical vein. On the other hand, saline was infused to the LPA control group (vehicle) through the femoral vein. In other groups, CCK-8 was administered through the cervical vein at a rate of 0.12 μg/kg/h and 1 ml/h. In the 18:3-LPA group and the 18:3-LPC group, 3 mg/kg/h of 18:3-LPA and 10 mg/kg/h of 18:3-LPC, respectively, were infused through the femoral vein. In the control group with no stimuli by CCK-8 and in the 18:3-LPA control group (vehicle), saline was administered through the femoral vein. One hour after the final administration (Admn.2), the volume of pancreatic juice collected was measured.

Experiment [3] deals with pancreatic juice secretion. Nature of the experiment: Effect of LPA receptor or EDG-2 agonist on pancreatic juice secretion in rats (Example 6). The format is in vivo. The conditions noted are these: rat, intravenous infusion through the cervical vein. As to the method: Using an LPA receptor or EDG-2 agonist, the effect of LPA on the pancreatic juice secretion was examined. An LPA receptor agonist 18:3-LPA was intravenously infused to a rat through the cervical vein, and the amount of pancreatic juice secreted was measured. In a group to which 18:3-LPA was administered, the pancreatic juice secretion was inhibited in rats.

In experiment [4] the test system is pancreatic juice secretion. The experiment is described as follows: Effect of LPA receptor or EDG-2 antagonist on pancreatic juice secretion in rats (Example 7). It counts as in vivo, rat. As to the method: Using Compound 1 having the effect as a EDG-2 antagonist was confirmed in Example 5, the effect of LPA on the pancreatic juice secretion was examined.
In rats, (1) 18:3-LPA and (2) saline as a control (vehicle) for 18:3-LPA were respectively infused through the femoral vein, and (3) Compound 1 and (4) 5% bovine serum albumin/10% DMSO/saline as a control (vehicle) for Compound 1 were respectively infused through the cervical vein, at a rate of 0.5 ml/h for 1 hour.
On the other hand, saline was previously infused through the femoral vein and cervical vein (0.5 ml/h), and after one hour the pancreatic juice was collected in order to ascertain that there was no difference in the initial volumes of the secreted pancreatic juice in rats in each group.

The mark [5] stands for this setting: 10 mg/kg/h, 1 ml/h, i.v. infusion.

As to `CC/C=C\C/C=C\C/C=C\CCCCCCCC(=O)OCC(O)COP(=O)(O)O` (stereo not drawn) [18:3-LPA, 1-linolenoyl-lyzophosphatidic acid], the “dose at which the effect on pancreatic juice secretion reached approximately the maximum” value in experiment [1] (i.v. infusion 1 ml/h) is given as roughly 3 mg/kg/h. In addition, the pancreatic juice secretion entry is “decreased” in experiment [1] (i.v. infusion 1 ml/h for 1 hr, 18:3-LPA 1, 3, 10 mg/kg/h, FIG. 1); “Dose-dependent inhibitory effect” in experiment [1] (i.v. infusion 1 ml/h for 1 hr, 18:3-LPA 1, 3, 10 mg/kg/h, FIG. 1, listed as LPA); “inhibited” in experiment [3]. Also, the “amount of amylase secreted” value in the experiment with amylase secretion (rats, 1, 3 or 10 mg/kg/h i.v. infusion, FIG. 2) is reported as “reduced”. For the same compound, in the experiment on lipase secretion (3 and 10 mg/kg/h i.v. infusion, FIG. 3), the “amount of lipase secreted” value is listed as “reduced significantly”. Further, the “pancreatic juice secretion increased by CCK-8” value in experiment [2] (3 mg/kg/h intravenous infusion, FIG. 4) is given as “reduced the increased pancreatic juice secretion approximately to the control level”. Besides, in experiment [4] (18:3-LPA 3 mg/kg/h i.v. infusion), the “basal secretion volume of pancreatic juice” value is on record as “inhibition of the basal secretion volume was observed”.

In the case of `CC/C=C\C/C=C\C/C=C\CCCCCCCC(=O)OCC(O)COP(=O)([O-])OCC[N+](C)(C)C` (stereo not drawn) [18:3-LPC, 1-linolenoyl lisophosphatidylcholine, reference compound], the pancreatic juice secretion result in experiment [1] (setting [5]) is listed as “no inhibitory effect”. Moreover, the amylase secretion entry in the experiment on amylase secretion (rats, 10 mg/kg/h, 1 ml/h, i.v. infusion) was “no inhibitory effect”. Moreover, the lipase secretion entry with lipase secretion (setting [5]) is on record as “no inhibitory effect”. Also, the “pancreatic juice secretion induced by CCK-8” value in experiment [2] (10 mg/kg/h, 1 ml/h, intravenous infusion) was “no inhibitory effect”.

As to `COC(=O)CCSCc1ccc(-c2onc(C)c2NC(=O)OC(C)c2ccccc2Cl)cc1` (stereo not drawn) [Compound 1, methyl 3-({4-[4-({[1-(2-chlorophenyl)ethoxy]carbonyl}amino)-3-methyl-5-isoxazolyl]benzyl}sulfanyl)propanoate], in experiment [4] (Compound 1 administered together with 18:3-LPA (3 mg/kg/h), FIG. 5), the “recovery of pancreatic juice secretion from the inhibition by 18:3-LPA” value is given as “significantly recovered”. Further, the “basal (at resting) secretion volume of pancreatic juice vs control group (vehicle)” value in experiment [4] (Compound 1 alone, 10 mg/kg/h i.v. infusion, after one hour, FIG. 5) is listed as “no difference”.

Turning to “CCK-8: cholecystokinin, CCK-8 (Sigma No. C-2175), used to stimulate pancreatic juice secretion (DY(SO3H)MGWMDF-NH2; UniProt P06307 96-103, looked up)”, in experiment [2] (1 ml/h through the cervical vein), the “secretion of pancreatic juice (stimulation)” value was “markedly increased”.
